Experimental data from patent US11801235B2, “Methods and compositions for delivery of biotin to mitochondria” (priority 2020, dated 2023).
Peptide text beside a SMILES is read from it. * marks the point of attachment. Biotin = O=C1N[C@H]2[C@H](CS[C@H]2CCCCC(=O)*)N1

How the values were obtained:
[1] = tested on: ARPE-19 human retinal pigment epithelial cells; test: Mitochondrial localization: co-localization with cytochrome c oxidase subunit 4 (COX4); assay type: cell-based; conditions: ARPE-19 cells, 1 uM, 2 hours, serum-free DMEM/F12
Protocol: Cells were fixed with 4% PFA at RT for 10 min and then permeabilized with 0.1% Triton X-100 at RT for 10 min. Cells were blocked with 2% BSA (bovine serum albumin) at RT for 30 min, and then incubated with primary antibody for cytochrome c oxidase subunit 4 (COX4), a major protein complex expressed on the inner mitochondrial membrane. The rabbit polyclonal COX4 antibody (Invitrogen PAS-29992, Waltham, MA) was used at 1:500 dilution in 2% BSA at 4° C. overnight.

HK-2 cells [2] = test: Cell viability (Alamar Blue) after 11 days of serum starvation; assay type: cell-based, human; conditions: 10 nM, vs serum-free control
Protocol: In the first model, HK-2 cells were cultured in 96-well plates in serum-free DMEM alone or in serum-free DMEM containing 10 nM of SPN11 or SPN12 for 11 days. Culture medium was replaced every 3 days.
(§1) Cell viability was measured using the Alamar Blue Cell Proliferation Assay (Bio-Rad), according to manufacturer's protocol. Alamar Blue uses resazurin to measure reducing power of living cells. The weakly fluorescent resazurin is reduced to the highly fluorescent resorufin when reduced by cellular metabolism. Briefly, alamar blue reagent (10 ul) was added to the culture medium and incubated for 1 h at 37° C. Fluorescence from resorufin (Ex/Em 530/590 nm) was detected using a microplate reader (SpectraMax iD3, Molecular Devices).

ARPE-19 cells [3] = test: Cell number and viability after 30 days of serum deprivation; assay type: cell-based, human; conditions: 10 nM
Protocol: as §1
In the second model, ARPE-19 cells were grown in serum-free DMEM in the absence or presence of peptide-conjugated biotin molecules for 30 days. Serum-free media was supplemented with 10 nM of SPN12, SPN15 or SPN16 compounds (all at 10 nM) was replaced every 3 days. Culture medium was replaced every 3 days.

HK-2 cells [4] = test: Cellular ATP in extreme starvation model (serum-free 5% DMEM in PBS, 3 days); assay type: cell-based, human; conditions: 10 nM
Protocol: ATP was measured using the ApoSENSOR ATP Bioluminescence Assay Kit (BioVision) according to manufacturer's protocol. This kit utilizes luciferase to catalyze the formation of light from ATP and luciferin. Briefly, cells were treated with 100 ul of Nuclear Releasing Buffer for 5 min at RT with gentle shaking. 10 ul of ATP Monitoring Enzyme was added to cell lysate, and luminescence was measured using a microplate reader (SpectraMax iD3, Molecular Device). ATP levels were normalized to the serum-free DMEM control group (arbitrarily set to 1.0).
The second model uses an extreme starvation model whereby HK-2 cells were cultured in 96-well plates in serum-free 5% DMEM in PBS (phosphate-buffered saline) for 3 days. Cells were treated with 10 nM free biotin or peptide-conjugated biotin molecules. All treatments were carried out with N=6 in each experiment.

[5] = tested on: Human retinal pigment epithelial cells (ARPE-19); test: Mitochondrial potential (TMRM/MitoView Green) after serum starvation; assay type: cell-based; conditions: ARPE-19 cells, 3 days of serum starvation, then 1 uM for 2 hours
Protocol: ARPE-19 cells were seeded in 35 mm glass plates at an initial density of 5×10^4 cells. […] Cells were then incubated in serum-free DMEM/F12 alone (control group) or DMEM/F12 containing 1 uM of SPN12 or SPN15 for 2 hours.
To determine mitochondrial potential, live cells were incubated with 5 nM tetramethylrhodamine methyl ester (TMRM, #70017, Biotium, Fremont, CA) in DMEM without phenol red. TMRM is a potential-dependent fluorescent dye (Ex/Em=548/573). TMRM accumulates in negatively charged polarized mitochondria and can be detected as red fluorescence. Total mitochondria were imaged with a mitochondrial potential-independent fluorescent dye (100 nM MitoView Green; Ex/Em=490/523; #70054, Biotium, Fremont CA). Hoechst 33342 (10 ug/ml, Novus Biologicals, Centennial, CO) was added to stain nuclei. Live cells were covered with phosphate buffer and imaged using the Nikon Eclipse Ti fluorescent microscopy using the 60×water objective.

HK-2 cells [6] = test: In vitro scratch assay (scratch area); assay type: cell-based, human; conditions: 10 nM
Protocol: (§2) Certain exemplary peptide-conjugated biotin molecules can accelerate wound healing in cell cultures. The in vitro scratch assay is an easy and well-developed method to measure cell proliferation and migration over a “wound area” in vitro. This assay involves creating a “scratch” in a cell monolayer with a pipette tip and then examining the rate at which cells proliferate and migrate to close the scratch.
3×10^5 cells were plated per well in 6-well plates in DMEM at 37° C. in a humidified incubator with 5% CO2 for one day prior to the experiment. To mimic the microenvironment of wounds in vitro, serum-free medium was used in the scratch assay. On the day of the scratch assay, the medium was replaced with serum-free DMEM, and a line scraped across the cell monolayer using a p1000 pipette tip. Cells were washed to remove cell debris and replaced with DMEM alone (control), or DMEM containing 10 nM biotin or peptide-conjugated biotin molecules.
(§3) The scratch area was examined immediately (day 0) using a Nikon Eclipse Ti2 fluorescence microscope. Six different field were captured for each sample using 4×objective. The scratch area (cell-free zone) was calculated using ImageJ software, an open-source Java image processing program inspired by NIH Image (National Institute of Health). The scratch area was re-examined after 24 hours (day 1), and the area was normalized to the area determined on day 0 for the same sample. All results were calculated as change from no-treatment control and averaged for the six fields.

ARPE-19 cells [7] = test: In vitro scratch assay (scratch area); assay type: cell-based, human
Excerpt: as §2, §3

[8] = tested on: ARPE-19 human retinal pigment epithelial cell monolayers; test: Cell proliferation at scratch edge (PCNA staining); assay type: cell-based; conditions: ARPE-19 cells, 10 nM, serum-free, 24 hours after scratch
Excerpt: (§4) Re-epithelialization of a wound area require proliferation of cells at the wound edge, which can be impaired in most wounds due to lack of blood flow to deliver nutrients and/or growth factor(s) that can be necessary for cell proliferation. Cell proliferation in the wound edge can be monitored by proliferating cell nuclear antigen (PCNA) staining. To mimic the microenvironment of wounds in vitro, serum-free medium was used for the scratch assay in cell cultures.
(§5) Proliferating cells were identified by immunostaining with antibody to proliferating cell nuclear antigen (PCNA) according to standard procedures as presented in IHC World. PCNA staining was performed using the same plate of cells after determination of scratch area. […] All cell nuclei stain blue with Hoechst, but nuclei of proliferating cells stain red. The number of proliferating cells per field was quantified by the intensity of red nuclear stain and normalized to intensity of blue nuclear stain (determined by Nikon NIS-Elements Imaging Software).

[9] = tested on: HK-2 human renal epithelial cell monolayers; test: Cell proliferation at scratch edge (PCNA staining); assay type: cell-based; conditions: HK-2 cells, 10 nM, serum-free, 24 hours after scratch
Excerpt: as §4, §5

HK-2 cells [10] = test: Mitochondrial potential (TMRM) of cells at the scratch edge; assay type: cell-based, human; conditions: 10 nM, serum-free, 24 hours after scratch
Excerpt: Rapidly dividing cells can need ATP to support the synthesis of important building blocks. Tissue injury can cause rapid mitochondrial depolarization that compromises ATP production and/or results in cell death. The loss of ATP can further impair cell proliferation and/or tissue repair. Mitochondrial potential can be monitored in the cells at the edge of the scratch area using the cell-permeable potential-dependent dye TMRM (tetramethylrhodamine methyl ester). TMRM can accumulate in negatively charged polarized mitochondria and can be detected as red fluorescence. To mimic the microenvironment of wounds in vitro, serum-free medium was used in the scratch assay. […] HK-2 cells were then incubated with 5 nM TMRM in DMEM without phenol red and incubated for 30 min. Cells were then covered with live cell image buffer and imaged using Nikon Eclipse Ti2 fluorescent microscope (20× objective).

SMILES: N=C(N)NCCC[C@H](NC(=O)[C@H](Cc1c[nH]c2ccccc12)NC(=O)CCCC[C@@H]1SC[C@@H]2NC(=O)N[C@@H]21)C(=O)N[C@@H](Cc1c[nH]c2ccccc12)C(=O)N[C@@H](CCCCNC(=O)CCCC[C@@H]1SC[C@@H]2NC(=O)N[C@@H]21)C(N)=O [SPN12, D-Biotin-L-Trp-L-Arg-L-Trp-L-Lys(biotinyl)-NH2] (Biotin-WRWK(Biotin)-NH2)
- co-localization of biotin staining with COX4 staining (inner mitochondrial membrane), FIG. 6 [1]: co-localization
- improvement of cell viability in the absence of serum, FIG. 7 (HK-2 cells [2]): 35%
- cell viability after serum deprivation compared to control, FIG. 9 (ARPE-19 cells [3]; 30 days of serum deprivation): doubled
- cell number after prolonged serum deprivation, microscopic images FIG. 8 (ARPE-19 cells [3]; 30 days serum-free): increased cell number
- ATP content compared to free biotin under extreme starvation, FIG. 12 (HK-2 cells [4]): doubling
- mitochondrial potential (TMRM) and filamentous mitochondrial network, FIG. 14 [5]: restore mitochondrial potential in all cells
- scratch area after 24 hours, microscopic images FIG. 15 (HK-2 cells [6]; serum-free DMEM, 24 hours after mechanical scratch): almost completely closed
- closure of the scratch area compared to control, FIG. 16 and FIG. 17 (HK-2 cells [6]; serum-free, 24 hours): significantly accelerated the closure of the scratch area
- effectiveness in reducing scratch area compared to free biotin, FIG. 16 and FIG. 17 (HK-2 cells [6]; serum-free, 24 hours): twice as effective
- wound healing (scratch closure), FIG. 18 (ARPE-19 cells [7]): accelerated wound healing
- number of proliferating (PCNA-positive) cells at the edge of the scratch, images FIG. 22 [8]: increased the number of proliferating cells
- number of proliferating cells normalized to all nuclei, FIG. 21 ([9]; compared to control or biotin): doubled
- number of proliferating (PCNA-positive) cells at the edge of the scratch, images FIG. 20 ([9]; compared to free biotin): increased the number of proliferating cells
- number of cells with good mitochondrial potential (TMRM) at scratch edge, images FIG. 24 (HK-2 cells [10]): increased the number of cells with good mitochondrial potential
- mitochondrial potential (red fluorescence) normalized to nuclear number, FIG. 25 (HK-2 cells [10]; compared to control): significantly increased mitochondrial potential
